Results taken from article PMC8049054, “Systematic Assessment of Fragment Identification for Multitarget Drug Design” (Chemmedchem, 2021).
pKd: −log10 of the molar value.

Key:
RXRα = target: T1, RXRα (Homo sapiens, UniProt P19793); assay: ITC measurement RXRα LBD; assay type: binding; design: key: n.b.: no binding; w.b.: weak binding; conditions: 50 μM protein, 250 μM compound, 25 °C
T1 construct: MBP (N, cleaved yes); poly-N-tag, His8-tag, TEV site (N, cleaved yes); made in house; host or cells: E. coli T7-express with pGro7 (GroEL/ES)
T1 sequence (P19793 225-462): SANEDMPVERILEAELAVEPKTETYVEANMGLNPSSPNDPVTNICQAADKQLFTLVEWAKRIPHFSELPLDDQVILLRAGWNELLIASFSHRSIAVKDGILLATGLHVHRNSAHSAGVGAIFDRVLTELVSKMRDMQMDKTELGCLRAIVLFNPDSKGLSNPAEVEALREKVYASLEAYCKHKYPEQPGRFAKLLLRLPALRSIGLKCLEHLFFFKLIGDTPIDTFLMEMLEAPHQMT
Protocol: (§1) For hit validation, we employed secondary assays with orthogonal readouts to confirm fragment activities. Biochemical activity assays were chosen for the enzymes sEH, LTA4H, and 5‐LOX. […] RXRα and FXR modulation was assessed in cell‐based hybrid reporter gene assays. All ten compounds were tested at a single concentration of 500 μM in the sEH and LTA4H activity assays and with a concentration of 100 μM on 5‐LOX, RXRα, and FXR. Fragments showing an inhibition greater than 50 % (sEH‐H and LTA4H) or greater than 70 % (5‐LOX) as well as the hits determined in the DSF experiments were further characterized in full concentration‐response curves between 0.1 and 1000 μM. […] As alternative cell‐free assay we employed isothermal titration calorimetry (ITC) to determine binding affinity of the fragments towards the LBDs of both nuclear receptors. ITC was performed with a protein concentration of 50 μM and compound concentrations of 250 μM. […]
Final concentration per well was 3 nM sEH-Fl, 0.001 % Triton X-100, 25 mM Bis-tris, 0.1 mg/ml BSA, pH = 7.0, 1.6% DMSO […]

[1] = tested on: sEH, LTA4H, 5‐LOX, FXR, RXR; assay: Orthogonal (secondary) assays, summary statements over the targets
Protocol: as §1
% (5-LOX) as well as the hits determined in the DSF experiments were further measured with concentrations between 1000 µM and 0.1 µM (sEH-H and LTA4H) and between 300 µM and 1 µM (5-LOX). […] The 5-LOX activity assay was performed with one point per concentration and repeated 3 times Raw data was first analyzed in Microsoft Office Excel (2013), before IC50 curves were plotted and further analyzed using GraphPad Prism 7 and GraphPad Prism 8 for the shown graphs .
The eight approved drugs were measured in the orthogonal assay systems analogous to the fragments. […]
For the sEH-H and LTA4H, they were measured as triplicate in concentrations between 1000 µM and 1 µM and each measurement was repeated three times. For the 5-LOX they were measured as single point measurement in three different experiments with concentrations between 300 µM and 1 µM. […]
The sEH-H activity assay was performed adapted from Hahn et al.5 and Lukin et al.6. […] The Plate was measured every minute for 45 min. […]

sEH-H = target: T2, sEH-H (Homo sapiens, UniProt P34913); assay: ITC measurement sEH-H; assay type: binding; conditions: 25 °C, read-out: sEH K d
T2 construct: For the expression of sEH-H and sEH-Fl transformed E.coli BL21 (DE3) cells were grown in 5052; made in house; host or cells: E. coli BL21 (DE3)
T2 sequence (P34913 235-555 limits assumed): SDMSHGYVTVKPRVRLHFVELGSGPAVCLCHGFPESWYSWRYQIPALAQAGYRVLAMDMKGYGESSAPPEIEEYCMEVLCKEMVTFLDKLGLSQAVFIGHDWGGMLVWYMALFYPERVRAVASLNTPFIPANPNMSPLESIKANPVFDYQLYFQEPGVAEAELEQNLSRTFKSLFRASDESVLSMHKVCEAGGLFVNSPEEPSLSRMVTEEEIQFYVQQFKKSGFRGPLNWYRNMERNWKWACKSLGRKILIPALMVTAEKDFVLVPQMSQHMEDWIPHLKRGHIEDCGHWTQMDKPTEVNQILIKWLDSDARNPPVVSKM

Row | Structure (SMILES) | RXRα K d (RXRα) | confirmation of dual DSF hits in the orthogonal experiments [1] | pKd (sEH-H)
1 | c1ccc(N2CCNCC2)nc1 [Compound 1] | n.b. | – | –
2 | Cc1cc(=O)n(-c2ccc(C)c(C)c2)[nH]1 [Compound 2] | – | confirmed active | –
3 | Oc1ccc(-c2ccc(F)cc2F)cc1 [Compound 9] | n.b. | confirmed active | 5.46
4 | Fc1ccc(-c2c[nH]c3ccccc23)cc1 [Compound 10] | n.b. | confirmed active | 6.07
